We go through five compounds from publication PMC11724841 (Communications Biology, 2025).

For assay [1], the target named is Halorhodospira halophila LH1–RC core complex (Halorhodospira halophila strain BN9622). The assay can be described thus: cryo-EM structure.
The target of assay [2] is Hlr. halophila RC (in LH1–RC–HiPIP complex) (Halorhodospira halophila, UniProt A1WXF6+A1WXF7). The assay is described as follows: cryo-EM structure, […] Å. Format: binding. The note with it: native complex.
The target in another assay is T1, iso-3 HiPIP (Halorhodospira halophila, UniProt A1WXH6).
T1 sequence (A1WXH6 26-145): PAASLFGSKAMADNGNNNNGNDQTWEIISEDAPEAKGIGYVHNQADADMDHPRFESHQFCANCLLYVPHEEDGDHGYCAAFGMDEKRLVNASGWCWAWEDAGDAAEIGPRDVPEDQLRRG
The assay can be described thus: cryo-EM structure, […] Å. Conditions: native complex; functional N-terminal domain. Format: binding.

Hlr. halophila RC (in LH1–RC–HiPIP complex), sequence (A1WXF7 1-276): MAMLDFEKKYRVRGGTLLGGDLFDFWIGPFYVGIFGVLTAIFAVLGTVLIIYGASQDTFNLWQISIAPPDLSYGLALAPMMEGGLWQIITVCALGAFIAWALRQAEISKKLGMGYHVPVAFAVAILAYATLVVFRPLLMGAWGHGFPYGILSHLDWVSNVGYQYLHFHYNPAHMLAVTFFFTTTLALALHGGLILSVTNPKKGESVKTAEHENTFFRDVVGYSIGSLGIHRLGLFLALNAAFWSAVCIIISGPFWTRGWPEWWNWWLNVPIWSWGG
Hlr. halophila RC (in LH1–RC–HiPIP complex), sequence (A1WXF6 1-323): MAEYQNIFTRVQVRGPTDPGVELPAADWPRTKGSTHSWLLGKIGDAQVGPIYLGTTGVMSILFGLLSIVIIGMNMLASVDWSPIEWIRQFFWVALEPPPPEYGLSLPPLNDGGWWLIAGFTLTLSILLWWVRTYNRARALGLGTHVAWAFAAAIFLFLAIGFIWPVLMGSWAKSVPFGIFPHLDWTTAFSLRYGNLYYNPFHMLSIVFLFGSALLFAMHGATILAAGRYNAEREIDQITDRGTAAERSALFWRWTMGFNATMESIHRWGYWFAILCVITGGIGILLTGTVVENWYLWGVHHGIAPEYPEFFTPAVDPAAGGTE
Hlr. halophila RC (in LH1–RC–HiPIP complex), sequence (A1WXI3 1-278 partner): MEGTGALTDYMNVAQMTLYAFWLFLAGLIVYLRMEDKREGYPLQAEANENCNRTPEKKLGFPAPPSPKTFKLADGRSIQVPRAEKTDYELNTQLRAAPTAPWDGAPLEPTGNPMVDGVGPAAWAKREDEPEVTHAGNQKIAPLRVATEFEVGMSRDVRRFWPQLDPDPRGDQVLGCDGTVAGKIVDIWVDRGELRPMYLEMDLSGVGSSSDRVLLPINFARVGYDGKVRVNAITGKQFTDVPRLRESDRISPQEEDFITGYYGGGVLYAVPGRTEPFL
Hlr. halophila RC (in LH1–RC–HiPIP complex), sequence (A1WXF5 26-362 partner): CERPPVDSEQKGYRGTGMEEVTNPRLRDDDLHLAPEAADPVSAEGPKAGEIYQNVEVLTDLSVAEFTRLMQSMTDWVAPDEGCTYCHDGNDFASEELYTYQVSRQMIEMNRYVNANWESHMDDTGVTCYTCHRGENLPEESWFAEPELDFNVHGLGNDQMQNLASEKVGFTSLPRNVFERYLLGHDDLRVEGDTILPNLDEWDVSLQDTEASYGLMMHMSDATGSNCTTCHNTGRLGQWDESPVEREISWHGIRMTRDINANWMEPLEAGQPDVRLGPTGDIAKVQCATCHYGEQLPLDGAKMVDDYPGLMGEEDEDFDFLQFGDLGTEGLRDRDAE

As for “Halorhodospira halophila iso-3 high-potential iron–sulfur protein (HiPIP) (natural protein)”, the percent of LH1–RC particles with bound HiPIP in assay [1] amounted to 66.7%. For the compound `CC[C@H]1c2cc3[nH]c4c(c3C)C(=O)[C@H](C(=O)OC)c4c3nc(cc4[nH]c(cc(n2)[C@@H]1C)c(C(C)=O)c4C)[C@@H](C)[C@@H]3CCC(=O)OC/C=C(\C)CCC[C@H](C)CCC[C@H](C)CCCC(C)C` [BPhe], the “cryo-EM structure, 2.44 Å” value in assay [2] (RC pigment, printed only as BPhe) was “BPhe, orange sticks”. As to `CC(C)=CCC/C(C)=C/CC/C(C)=C/CC/C(C)=C/CC/C(C)=C/CC/C(C)=C/CC/C(C)=C/CC/C(C)=C/CC1=C(C)C(=O)c2ccccc2C1=O` [MQ-8, menaquinone-8], the “cryo-EM structure, 2.44 Å” value in assay [2] (QA site) was “one MQ-8 and one UQ-8 were identified unambiguously at the RC QA and QB sites”. `[S]12[Fe]3[S]4[Fe]1[S]1[Fe]2[S]3[Fe]41` [4Fe–4S, 4Fe–4S cluster]: at iso-3 HiPIP, the “cryo-EM structure, 2.44 Å” value is on record as “N-terminal functional portion containing the 4Fe–4S cluster”. As for `COC1=C(OC)C(=O)C(C/C=C(\C)CC/C=C(\C)CC/C=C(\C)CC/C=C(\C)CC/C=C(\C)CC/C=C(\C)CC/C=C(\C)CCC=C(C)C)=C(C)C1=O` [UQ-8, ubiquinone-8], in assay [2] (QB site), the “cryo-EM structure, 2.44 Å” value is “one MQ-8 and one UQ-8 were identified unambiguously at the RC QA and QB sites”.
